In assay [1] the test system is Phosphodiesterase 4 enzyme. Put plainly: Inhibition of PDE4 (enzyme purified from U937 human monocytic cells). Type of assay: biochemical. Particulars: 1 μM cAMP, 45 min at 30° C. On the procedure:
Inhibition of PDE4: Phosphodiesterase 4 enzyme was purified from U937 human monocytic cells by gel filtration chromatography, and phosphodiesterase reactions were carried out as previously described. See Muller et al., Bioorg. Med. Chem. Lett., 1998, 8(19): 2669-2674. Briefly, reactions were carried out in 96-well deep-well plates in 50 mM Tris HCl pH 7.5, 5 mM MgCl2, 1 μM cyclic adenosine monophosphate (cAMP), plus 10 nM [3H]-cAMP for 45 min at 30° C. The reactions were terminated by boiling, treated with 1 mg/ml snake venom, and separated using AG-1X8 ion exchange resin (BioRad). Reactions consumed less than 15% of available substrate.

The test system of the next assay is TNF-α production. The experiment in a line: Inhibition of TNF-α production in a mouse model. Type of assay: in vivo. The source says: The test methods were as described in WO 03/080049; Muller et al., J. Med. Chem., 1996, 39:3238; and Muller et al., Bioorg. Med. Chem. Lett., 1999, 9:1625-30.
The next assay has as its target T1, PDE6 (Bos taurus, UniProt P11541+P23439).
T1 sequence (P11541 1-859): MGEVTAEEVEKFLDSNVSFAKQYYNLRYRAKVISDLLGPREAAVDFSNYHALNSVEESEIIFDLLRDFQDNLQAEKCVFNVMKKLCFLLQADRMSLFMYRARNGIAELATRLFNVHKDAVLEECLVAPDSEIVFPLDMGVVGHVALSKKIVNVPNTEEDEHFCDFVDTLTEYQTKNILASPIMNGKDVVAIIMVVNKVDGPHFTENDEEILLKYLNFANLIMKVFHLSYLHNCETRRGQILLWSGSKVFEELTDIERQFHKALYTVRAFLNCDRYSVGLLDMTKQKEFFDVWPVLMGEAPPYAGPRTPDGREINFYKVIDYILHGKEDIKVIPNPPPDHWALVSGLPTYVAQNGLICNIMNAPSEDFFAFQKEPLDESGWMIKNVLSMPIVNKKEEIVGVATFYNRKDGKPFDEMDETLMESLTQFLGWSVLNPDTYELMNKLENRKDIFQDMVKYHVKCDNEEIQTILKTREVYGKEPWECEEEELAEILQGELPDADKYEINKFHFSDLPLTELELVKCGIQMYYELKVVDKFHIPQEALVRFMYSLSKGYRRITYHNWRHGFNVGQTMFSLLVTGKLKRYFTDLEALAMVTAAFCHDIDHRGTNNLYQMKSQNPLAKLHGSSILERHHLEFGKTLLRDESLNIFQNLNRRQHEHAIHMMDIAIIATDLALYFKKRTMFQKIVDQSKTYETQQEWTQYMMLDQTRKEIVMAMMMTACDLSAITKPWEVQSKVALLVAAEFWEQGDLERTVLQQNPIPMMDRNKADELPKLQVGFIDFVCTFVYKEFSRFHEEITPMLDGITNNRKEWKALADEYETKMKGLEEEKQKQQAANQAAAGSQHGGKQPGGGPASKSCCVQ
T1 sequence (P23439 1-853): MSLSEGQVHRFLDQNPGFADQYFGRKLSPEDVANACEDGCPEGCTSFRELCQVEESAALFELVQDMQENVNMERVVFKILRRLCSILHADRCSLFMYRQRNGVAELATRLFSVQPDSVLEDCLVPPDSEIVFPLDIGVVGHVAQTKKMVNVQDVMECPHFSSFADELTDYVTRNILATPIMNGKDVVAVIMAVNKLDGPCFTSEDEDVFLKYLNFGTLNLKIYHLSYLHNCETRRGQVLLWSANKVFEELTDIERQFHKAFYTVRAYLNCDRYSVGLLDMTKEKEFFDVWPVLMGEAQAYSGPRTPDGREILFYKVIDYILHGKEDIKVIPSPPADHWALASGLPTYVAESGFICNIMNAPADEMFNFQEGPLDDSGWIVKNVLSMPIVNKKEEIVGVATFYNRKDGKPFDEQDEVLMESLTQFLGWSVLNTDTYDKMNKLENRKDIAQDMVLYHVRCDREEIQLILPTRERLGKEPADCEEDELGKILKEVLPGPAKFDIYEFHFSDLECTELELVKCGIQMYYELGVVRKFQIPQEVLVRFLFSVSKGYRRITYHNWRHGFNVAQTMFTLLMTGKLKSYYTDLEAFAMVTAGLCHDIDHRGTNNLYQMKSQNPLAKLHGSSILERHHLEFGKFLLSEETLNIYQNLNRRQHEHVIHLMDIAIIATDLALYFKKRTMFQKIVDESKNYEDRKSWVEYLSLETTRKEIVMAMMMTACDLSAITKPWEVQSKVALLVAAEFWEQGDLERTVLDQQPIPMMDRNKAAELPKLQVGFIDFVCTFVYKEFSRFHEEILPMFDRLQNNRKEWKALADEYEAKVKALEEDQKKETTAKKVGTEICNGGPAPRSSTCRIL
The experiment in a line: PDE6 enzyme assay. The class given is biochemical. On the procedure: (§1) PDE1, 2, 3 and 5 enzyme assays were prepared as described by Hidaka and Asano. Biochem. Biophys. Acta., 1976, 429:485; see also Nicholsen et al., Trends Pharmaco. Sci., 1991, 12:19. The PDE6 enzyme assay was prepared according to Baehr et al., J. Biol. Chem., 1979, 254:11669 and Gillespie et al., Mol. Pharm., 1989, 36: 773. The PDE7 enzyme assay was prepared according to Bloom and Beavo. Proc. Natl. Acad. Sci. USA, 1996, 93:14188-92.

For another assay, the target named is PDE7 (Homo sapiens, UniProt Q13946). The experiment in a line: PDE7 enzyme assay. The class given is biochemical. As to the method: as §1
Chain of PDE7 (Q13946 whole entry): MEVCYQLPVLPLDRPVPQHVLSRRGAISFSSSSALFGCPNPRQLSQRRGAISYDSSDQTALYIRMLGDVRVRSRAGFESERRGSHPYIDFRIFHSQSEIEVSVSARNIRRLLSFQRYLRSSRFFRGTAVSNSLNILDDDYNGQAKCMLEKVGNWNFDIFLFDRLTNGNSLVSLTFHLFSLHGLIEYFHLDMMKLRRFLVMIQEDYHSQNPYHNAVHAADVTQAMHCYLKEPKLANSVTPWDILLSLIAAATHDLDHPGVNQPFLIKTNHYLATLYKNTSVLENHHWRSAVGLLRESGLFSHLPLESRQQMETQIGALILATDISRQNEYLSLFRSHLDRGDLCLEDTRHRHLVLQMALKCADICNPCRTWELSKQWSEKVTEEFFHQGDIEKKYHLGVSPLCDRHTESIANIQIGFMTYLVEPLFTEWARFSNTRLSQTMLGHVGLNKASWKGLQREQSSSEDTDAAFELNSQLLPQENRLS

On to `CCOc1cc([C@@H](CS(C)(=O)=O)N2C(=O)c3cccc(NC(C)=O)c3C2=O)ccc1OC` [Apremilast, (+)-2-[1-(3-ethoxy-4-methoxyphenyl)-2-methylsulfonylethyl]-4-acetylaminoisoindoline-1,3-dione], for which the IC50 – broadly, the point on the concentration scale where inhibition reaches its midpoint – in assay [1] was 0.0735 µM; at PDE7, 20.5 µM. Also, in the assay on TNF-α production, the “EC50, inhibition of TNF-α production in a mouse model” value is 0.05 mg/kg. Moreover, at PDE6, the inhibition (usually the relative decrease from the control value, in per cent) at 10 µM was -6%.

(Values after US20150209327A1, “METHODS FOR THE TREATMENT OF OBESITY USING APREMILAST” (Celgene Corporation, priority 2014, published 2015).)
